In US20260102501A1, “ANTI-CANCER NUCLEAR HORMONE RECEPTOR-TARGETING COMPOUNDS” (Nuvation Bio Inc., priority 2022, published 2026):
Where a name gives a salt, the structure may show the parent alone. Read-outs that look alike come from different tables or passages of the source. Numbered stars: 1 amine (or outer) side, 2 acyl side, 3 side chain; on linkers, the order of the positions; unused ones are H or OH. Square brackets hold non-standard residues; d marks the D form. Peptide text beside a SMILES is read from it. * marks the point of attachment. X1 = CC(=O)O[C@]1(C(C)=O)CC[C@H]2[C@@H]3CCC4=CC(=O)CCC4=C3[C@@H](c3ccc(*)cc3)C[C@@]21C; Exatecan = CC[C@@]1(O)C(=O)OCc2c1cc1n(c2=O)Cc2c-1nc1cc(F)c(C)c3c1c2[C@@H](N*)CC3; NHCH2OCH2CO = O=C(COCN[*:1])[*:2]; Sar = CNCC(=O)O

How the values were obtained:
[1] = target: T1, ligand binding domain of the glucocorticoid receptor (HEK293 cells stably expressing) (Homo sapiens, UniProt P04150); assay: GR antagonism assay (luciferase reporter)
T1 sequence (P04150 524-758 limits assumed): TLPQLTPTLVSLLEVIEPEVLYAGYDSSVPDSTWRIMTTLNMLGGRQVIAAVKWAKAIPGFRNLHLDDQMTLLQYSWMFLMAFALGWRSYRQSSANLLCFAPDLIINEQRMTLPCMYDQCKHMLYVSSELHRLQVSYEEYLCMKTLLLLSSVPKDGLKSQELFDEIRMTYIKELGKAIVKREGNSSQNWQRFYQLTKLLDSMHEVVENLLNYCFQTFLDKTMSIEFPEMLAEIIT

[2] = target: T2, GR (cytosol from IM-9 cells) (Homo sapiens, UniProt P04150); assay: GR binding assay (3H-Dexamethasone displacement)
T2 sequence (P04150 1-777): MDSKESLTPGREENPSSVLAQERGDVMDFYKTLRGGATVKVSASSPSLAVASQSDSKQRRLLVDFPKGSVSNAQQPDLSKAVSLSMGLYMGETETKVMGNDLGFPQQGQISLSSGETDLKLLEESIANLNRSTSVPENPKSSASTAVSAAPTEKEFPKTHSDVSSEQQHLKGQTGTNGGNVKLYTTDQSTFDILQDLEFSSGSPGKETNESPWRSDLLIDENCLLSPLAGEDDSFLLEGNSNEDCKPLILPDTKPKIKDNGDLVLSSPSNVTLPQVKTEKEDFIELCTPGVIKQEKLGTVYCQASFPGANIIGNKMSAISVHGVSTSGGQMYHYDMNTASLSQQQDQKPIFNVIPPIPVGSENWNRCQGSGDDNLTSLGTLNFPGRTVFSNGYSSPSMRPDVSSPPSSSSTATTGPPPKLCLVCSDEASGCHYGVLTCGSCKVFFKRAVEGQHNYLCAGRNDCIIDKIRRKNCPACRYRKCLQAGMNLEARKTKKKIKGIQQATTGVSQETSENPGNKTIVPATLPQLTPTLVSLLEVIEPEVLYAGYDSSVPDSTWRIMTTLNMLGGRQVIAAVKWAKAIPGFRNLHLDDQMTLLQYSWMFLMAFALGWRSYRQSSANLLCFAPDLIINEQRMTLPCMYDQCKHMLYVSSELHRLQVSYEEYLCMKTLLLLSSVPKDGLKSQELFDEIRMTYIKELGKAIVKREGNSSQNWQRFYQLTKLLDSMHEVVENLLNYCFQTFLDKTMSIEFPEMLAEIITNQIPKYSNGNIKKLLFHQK

IEC6 cells = assay: Cell viability assay (CellTiterGlo); settings: Rattus norvegicus, IEC-6, 144 h, read-out: IEC-6 (IC50, nM)
[3] = target: T3, full-length androgen receptor (HEK293 cells stably expressing) (Homo sapiens, UniProt P10275); assay: AR antagonism assay (luciferase reporter)
T3 sequence (P10275 1-920): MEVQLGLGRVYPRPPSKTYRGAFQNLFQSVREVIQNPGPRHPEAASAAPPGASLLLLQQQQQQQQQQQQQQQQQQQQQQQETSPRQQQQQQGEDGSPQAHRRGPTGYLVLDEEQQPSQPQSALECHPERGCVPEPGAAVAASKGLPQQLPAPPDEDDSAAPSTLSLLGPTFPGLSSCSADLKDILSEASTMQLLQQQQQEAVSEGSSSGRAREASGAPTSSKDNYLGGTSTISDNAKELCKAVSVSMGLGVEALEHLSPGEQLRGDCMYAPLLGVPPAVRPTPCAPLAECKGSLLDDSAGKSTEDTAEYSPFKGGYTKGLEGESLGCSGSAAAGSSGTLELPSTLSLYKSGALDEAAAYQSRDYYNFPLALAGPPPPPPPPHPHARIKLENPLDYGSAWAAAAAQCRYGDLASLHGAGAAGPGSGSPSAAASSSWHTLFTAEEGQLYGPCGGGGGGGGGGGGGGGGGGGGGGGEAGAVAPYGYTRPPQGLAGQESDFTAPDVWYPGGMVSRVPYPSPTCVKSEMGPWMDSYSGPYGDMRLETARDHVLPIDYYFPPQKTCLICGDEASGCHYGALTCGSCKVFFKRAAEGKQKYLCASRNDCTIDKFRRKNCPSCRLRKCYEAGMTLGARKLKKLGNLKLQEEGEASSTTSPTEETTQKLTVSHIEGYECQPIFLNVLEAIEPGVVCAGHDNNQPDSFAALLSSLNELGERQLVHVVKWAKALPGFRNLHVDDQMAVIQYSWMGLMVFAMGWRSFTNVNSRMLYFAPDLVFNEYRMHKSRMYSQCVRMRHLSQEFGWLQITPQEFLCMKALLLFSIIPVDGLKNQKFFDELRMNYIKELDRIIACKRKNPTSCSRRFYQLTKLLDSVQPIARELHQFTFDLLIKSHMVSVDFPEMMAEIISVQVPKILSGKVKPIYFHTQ

LNCap cells = assay: Cell viability assay (CellTiterGlo); type: cell-based; settings: Homo sapiens, 144 h
[4] = 6 days incubation, CellTiterGlo, read-out: LNCap (IC50)

| Compound | IC50 [1] [nM] | IC50 [2] [nM] | IC50 (IEC6 cells) [nM] | IC50 [3] [nM] | IC50 (LNCap cells; read-out: LNCap (IC50, nM)) [nM] | IC50 (LNCap cells; [4]) [nM] |
| --- | --- | --- | --- | --- | --- | --- |
| CC[C@@]1(O)C(=O)OCc2c1cc1n(c2=O)Cc2cc3c(CN(C)C)c(OC(=O)N4CCN(CC5CCN(c6ccc(C(=O)N[C@H]7CC[C@H](Oc8ccc(C#N)c(Cl)c8C)CC7)nn6)CC5)CC4)ccc3nc2-1 [Compound 31, (S)-10-((Dimethylamino)methyl)-4-ethyl-4-hydroxy-3,14-dioxo-3,4,12,14-tetrahydro-1H-pyrano[3′,4′:6,7]indolizino[1,2-b]quinolin-9-yl 4-((1-(6-(((1r,4r)-4-(3-chloro-4-cyano-2-methylphenoxy)cyclohexyl)carbamoyl)pyridazin-3-yl)piperidin-4-yl)methyl)piperazine-1-carboxylate Formate] | > 1000 | > 1000 | 101 to 1000 | > 1000 | 10 to 100 |  |
| CC[C@@]1(O)C(=O)OCc2c1cc1n(c2=O)Cc2c-1nc1cc(F)c(C)c3c1c2[C@@H](N(C)C(=O)COCC1CCN(CCCCCCCN(C)c2ccc([C@H]4C[C@@]5(C)[C@@H](CC[C@]5(OC(C)=O)C(C)=O)[C@@H]5CCC6=CC(=O)CCC6=C54)cc2)CC1)CC3 [Compound 55, (8S,11R,13S,14S,17R)-17-acetyl-11-(4-((7-(4-((2-(((1S,9S)-9-ethyl-5-fluoro-9-hydroxy-4-methyl-10,13-dioxo-2,3,9,10,13,15-hexahydro-1H,12H-benzo[de]pyrano[3′,4′:6,7]indolizino[1,2-b]quinolin-1-yl)(methyl)amino)-2-oxoethoxy)methyl)piperidin-1-yl)heptyl)(methyl)amino)phenyl)-13-methyl-3-oxo-2,3,6,7,8,11,12,13,14,15,16,17-dodecahydro-1H-cyclopenta[a]phenanthren-17-yl acetate] | 10 to 100 | < 10 | > 1000 | 101 to 1000 |  | 101 to 1000 |
| CC[C@@]1(O)C(=O)OCc2c1cc1n(c2=O)Cc2c-1nc1cc(F)c(C)c3c1c2[C@@H](NC(=O)COCNC(=O)CNC(=O)[C@H](Cc1ccccc1)NC(=O)CNC(=O)CN(C)c1ccc([C@H]2C[C@@]4(C)[C@@H](CC[C@]4(OC(C)=O)C(C)=O)[C@@H]4CCC5=CC(=O)CCC5=C42)cc1)CC3 [Compound 34, (8S,11R,13S,14S,17R)-17-Acetyl-11-(4-(((S)-10-benzyl-1-(((1S,9S)-9-ethyl-5-fluoro-9-hydroxy-4-methyl-10,13-dioxo-2,3,9,10,13,15-hexahydro-1H,12H-benzo[de]pyrano[3′,4′:6,7]indolizino[1,2-b]quinolin-1-yl)amino)-1,6,9, 12,15-pentaoxo-3-oxa-5,8,11,14-tetraazahexadecan-16-yl)(methyl)amino)phenyl)-13-methyl-3-oxo-2,3,6,7,8,11,12,13,14,15,16,17-dodecahydro-1H-cyclopenta[a]phenanthren-17-yl Acetate] (X1-[Sar]GFG[NHCH2OCH2CO]-Exatecan) | 101 to 1000 | < 10 | 101 to 1000 | > 1000 |  |  |
| CC[C@@]1(O)C(=O)OCc2c1cc1n(c2=O)Cc2c-1nc1cc(F)c(C)c3c1c2[C@@H](NCC1CCN(CC2CCN(C(=O)CN(C)c4ccc([C@H]5C[C@@]6(C)[C@@H](CC[C@]6(OC(C)=O)C(C)=O)[C@@H]6CCC7=CC(=O)CCC7=C65)cc4)CC2)CC1)CC3 [Compound No. 51, (8S,11R,13S,14S,17R)-17-acetyl-11-(4-((2-(4-((4-((((1S,9S)-9-ethyl-5-fluoro-9-hydroxy-4-methyl-10,13-dioxo-2,3,9,10,13,15-hexahydro-1H,12H-benzo[de]pyrano[3′,4′:6,7]indolizino[1,2-b]quinolin-1-yl)amino)methyl)piperidin-1-yl)methyl)piperidin-1-yl)-2-oxoethyl)(methyl)amino)phenyl)-13-methyl-3-oxo-2,3,6,7,8,11,12,13,14,15,16,17-dodecahydro-1H-cyclopenta[a]phenanthren-17-yl acetate] | 10 to 100 | 10 to 100 | 101 to 1000 | 10 to 100 |  | 10 to 100 |
| CC[C@@]1(O)C(=O)OCc2c1cc1n(c2=O)Cc2cc3c(CN(C)C)c(OCC4CCN(C(=O)CN(C)c5ccc([C@H]6C[C@@]7(C)[C@@H](CC[C@]7(OC(C)=O)C(C)=O)[C@@H]7CCC8=CC(=O)CCC8=C76)cc5)CC4)ccc3nc2-1 [Compound No. 19, (8S,11R,13S,14S,17R)-17-Acetyl-11-(4-((2-(4-((((S)-10-((dimethylamino)methyl)-4-ethyl-4-hydroxy-3,14-dioxo-3,4,12,14-tetrahydro-1H-pyrano[3′,4′:6,7]indolizino[1,2-b]quinolin-9-yl)oxy)methyl)-piperidin-1-yl)-2-oxoethyl)(methyl)amino)phenyl)-13-methyl-3-oxo-2,3,6,7,8,11,12,13,14,15,16,17-dodeca-hydro-1H-cyclopenta[a]phenanthren-17-yl acetate] | 10 to 100 | < 10 | > 1000 | > 1000 |  | 101 to 1000 |
| CC[C@@]1(O)C(=O)OCc2c1cc1n(c2=O)Cc2cc3c(CN4CCN(CCCCCCN(C)c5ccc([C@H]6C[C@@]7(C)[C@@H](CC[C@]7(OC(C)=O)C(C)=O)[C@@H]7CCC8=CC(=O)CCC8=C76)cc5)CC4)c(O)ccc3nc2-1 [Compound 36, (8S,11R,13S,14S,17R)-17-acetyl-11-(4-((6-(4-(((S)-4-ethyl-4,9-dihydroxy-3,14-dioxo-3,4,12,14-tetrahydro-1H-pyrano[3′,4′:6,7]indolizino[1,2-b]quinolin-10-yl)methyl)piperazin-1-yl)hexyl)(methyl)amino)phenyl)-13-methyl-3-oxo-2,3,6,7,8,11,12,13,14,15,16,17-dodecahydro-1H-cyclopenta[a]phenanthren-17-yl acetate] | < 10 | 101 to 1000 | 101 to 1000 | 101 to 1000 |  | 10 to 100 |
| CC[C@@]1(O)C(=O)OCc2c1cc1n(c2=O)Cc2cc3c(CN4CCN(C(=O)C5CCN(c6ccc(C(=O)N[C@H]7CC[C@H](Oc8ccc(C#N)c(Cl)c8C)CC7)nn6)CC5)CC4)c(OC(=O)N4C[C@H](C)N(C)C[C@H]4C)ccc3nc2-1 [Compound 30, (S)-10-((4-(1-(6-(((1r,4r)-4-(3-Chloro-4-cyano-2-methylphenoxy)cyclohexyl)carbamoyl)-pyridazin-3-yl)piperidine-4-carbonyl)piperazin-1-yl)methyl)-4-ethyl-4-hydroxy-3,14-dioxo-3,4,12,14-tetrahydro-1H-pyrano[3′,4′:6,7]indolizino[1,2-b]quinolin-9-yl (2R,5S)-2,4,5-trimethylpiperazine-1-carboxylate Formate] | > 1000 | > 1000 | > 1000 | > 1000 | 10 to 100 |  |
